# Reference: patent US20110033430A1, “METHODS FOR THE INDUCTION OF A CELL TO ENTER THE ISLET 1+ LINEAGE AND A METHOD FOR THE EXPANSION THEREOF” (THE GENERAL HOSPITAL CORPORATION, priority 2007, published 2011)
# Entries after “also recorded” stand apart in the source; their conditions may differ.
# Columns and labels:
# [1] = system: postnatal isl1+ cardiovascular progenitors; assay: Expansion of postnatal isl1+ cardiovascular progenitors, isl1 immunostaining; format: cell-based, mouse; design: increase of number of isl1+ progenitors versus control: dose or concentration left out as unconfirmed; conditions: for number of isl1+ progenitors: isl1 immunostaining, versus control
# Description: Immunohistochemical Analyses and lacZ Staining. Cells in culture or paraffin embedded sections were fixed with 4% paraformaldehyde and subjected to immunostaining. For mouse embryo cryosections, they were saturated with 20% sucrose followed by section and 2% PFA fix for 10 min at room temperature. The following primary antibodies were used in this study: isl1 (mouse monoclonal antibody, clone 39.4D5, clone 2D6 (Developmental Studies Hybridoma Bank, 1:100), cardiac troponin T (mouse monoclonal antibody, NeoMarkers, 1:200), smooth muscle myosin heavy chain (rabbit polyclonal, Biomedical Technologies Inc., 1:100), smooth muscle actin (mouse monoclonal, clone 1A4, Dako, 1:100; rabbit polyclonal, Abcam), phosphohistone H3 (rabbit polyclonal, Upstate). Alexa Fluor 488- or Alexa Fluor 594-conjugated secondary antibodies specific to the appropriate species were used (Molecular Probes, 1:350). 3D reconstruction was done using Winsuf from Surfdriver Software. For immunoperoxidase staining, the VECTASTAIN ABC® system (VECTOR Laboratories) was used, accordingly to the vendors' instructions. 5 μm frozen sections and cultured cells were fixed with 0.2% and 0.05% glutaraldehyde respectively for 10 min at 4° C. followed by 3 times wash with PBS. LacZ stainings were then performed on these samples by incubating with X-Gal solution containing 40 mM HEPES, pH 7.4, 5 mM K3(Fe(CN)6), 5 mM K4(Fe(CN)6), 2 mM MgCl2, 15 mM NaCl, and 1 mg/ml X-Gal. For LacZ staining on EB-derived clones expanded on CMC, 0.02% NP-40 was added to the X-Gal solution for better permeabilization. When combining LacZ staining with immunoperoxidase analyses, samples were processed first for LacZ staining at room temperature over night, followed by a re-fixation with 4% paraformaldehyde prior to the immunoperoxidase stainings for specific epitopes or by re-fixation with 2% gluteraldehyde to perform EM studies.
# Statistic Analysis. Data were analyzed with two-tailed Student's t test and the results reported are statistically significant with p value <0.05. Standard error of the mean (SEM) is given for each mean value. For immunofluorescent analyses for postnatal isl1^+ cardiovascular progenitors, the cells within the whole well in an 8-well chamber slide were examined for Isl1 expression to obtain better statistic comparison.
# Although there was only a small increase over the control, the effect of these compounds was highly reproducible and statistically significant (p<0.05, 0.01, or 0.001, FIG. 2C). […] Two of these compounds were unknown (compound A and compound B), and the third was 6-bromoindirubin-3′-oxime (BIO), previously shown to be an inhibitor of GSK-3 (Meijer et al., 2003). BIO has been recently shown to promote self-renewal of both human and mouse ES cells through activation of the wnt/β-catenin pathway in combination with other signaling inputs (Sato et al., 2004). The inventors explored the role of BIO on the renewal of isl1^+ progenitors.
# Wnt/β-Catenin Pathway Plays a Pivotal Role in the Control of Isl1+ Progenitor Expansion. […] The inventors examined whether Wnt3a, a well-established ligand in the Wnt/β-catenin pathway (Logan and Nusse, 2004), was able to expand postnatal isl1^+ progenitors.
# [2] = system: human neonatal isl1+ progenitors; assay: Expansion of human neonatal isl1+ progenitors, isl1 immunostaining; format: cell-based; conditions: human neonatal CMC, 4 days
# Description: Isolation and Cell Culture Conditions of Human Postnatal Cardiac Progenitors. Biopsies are cut in small pieces and washed in solution A (10 mM Hepes, 35 mM NaCl, 10 mM glucose, 134 mM sucrose, 16 mM Na2HPO4, 25 mM NaHCO3, 7.75 mM KCl, 1.18 mM KH2PO4, pH 7.4), supplemented with 30 mM 2,3 butanedione 2-monoxime and 0.5 mM EGTA. First digestion step is performed in solution A supplemented with 0.5% BSA, 200 UI/ml of collagenase type II (Worthington) and 6 UI/ml protease type XXIV (Sigma) for 20 min at 37° C. to remove red blood cells and cell debris. Four digestion steps are performed in solution A supplemented with 400 UI/ml collagenase type V for 20 min at 37° C. and centrifuged at 30×g for 1 min. The supernatant is neutralized from the collagenase by adding ⅕ of NCS (newborn calf serum) and are centrifuged at 1300 rpm for 3-5 min. Pellet is resuspended in DMEM supplemented with 10% NCS, 5% FBS and Pen-Strep, and cells are seeded on chamber slide. BIO was added to the culture at different doses in complete progenitor medium and cultured for 4 days prior to immunostaining for Isl1.
# In order to test whether BIO was capable of expanding human neonatal isl1^+ progenitors, human neonatal CMC were isolated from the biopsies of patients with congenital heart defects into single cells and cultured for 4 days in the presence or absence of BIO.
# [3] = system: postnatal isl1+ progenitors in cardiac mesenchymal cells (CMC); assay: High-throughput chemical screening: β-gal activity quantified by luminescence (Beto-Glo); format: cell-based, mouse; conditions: CMC with isl1+ progenitors, 4 days treatment, versus DMSO control
# Description: Progenitors and High-Throughput Chemical Screening. […] Briefly, 30-40 hearts from 1-5 day-old isl1-mER-Cre-mER/R26R pups were used to prepare CMC, containing isl1+ progenitors marked by β-galactosidase. 4-OH-TM (Sigma), active form of tamoxifen, was added to the culture 1 day after plating at 1 μm. These were expanded for 7 days, trypsinized, and seeded at a density of 3,000 cells per well in 384-well plates.
# Isolation of Murine Postnatal Cardiac Progenitors and High-throughput Chemical Screening. […] Briefly, 30-40 hearts from 1-5 day-old is1-mER-Cre-mER/R26R pups were used to prepare CMC, containing isl1^+ progenitors marked by β-galactosidase. 4-OH-TM (Sigma), active form of tamoxifen, was added to the culture 1 day after plating at 1 μm. These were expanded for 7 days, then trypsinized, and seeded at a density of 3,000 cells per well in a 384-well plate.
# To find cardiac mesenchymal cells (CMC)-derived environmental cues involved in the renewal of isl1+ progenitors, the inventors developed a high-throughput chemical screening system, based on the coculture of CMC with postnatal isl1+ progenitors (FIG. 2A). […] The inventors used this library to screen for small molecules that would expand the rare population of postnatal isl1+ progenitors.
# CMC = assay: Cleaved caspase-3 immunostaining (apoptosis); format: cell-based, mouse; conditions: treated CMC
# Text: To further validate the specificity of BIO function, the inventors tested two other ATP-competitive GSK-3-specific inhibitors: an acetoxime analog of BIO and 1-Azakenpaullone (Kunick et al., 2004; Meijer et al., 2003). […] Taken together, the inventors have discovered that BIO promotes the expansion of isl1+ progenitors by inhibiting GSK-3 activity.
# [4] = system: anterior heart field isl1+ progenitors (AHF-GFP ES cells); assay: Expansion of ES cell-derived anterior heart field GFP+/isl1+ cells on CMC feeder, FACS; format: cell-based, mouse; conditions: 7 days on CMC feeder, versus control
# Description: Differentiation was induced by forming embryoid bodies (EB's) in hanging drops of 600 cells in 15 μL of media without LIF. On day 6, the EB's were trypsinized into single cell suspension and sorted on the basis of GFP expression using flow cytometry. GFP positive cells were plated on a neonatal cardiac mesenchymal feeder layer for 7 days with one of four conditions: DMSO, BIO, and conditioned media from either control cells (L-Cells) or cells overexpressing wnt3A. After 7 days of expansion on the cardiac mesenchymal feeder layer, the cells were trypsinized and FACS sorted. Differentiation of the GFP positive cells was triggered as follow: into myocytes, on fibronectin by using DMEM/M199 (4:1 ratio) medium containing 10% horse serum and 5% FBS; into SM cells, on fibronectin by using DMEM/F12 containing B27 supplement, 2% FBS, and 10 ng/ml EGF.
# To directly determine whether Wnt ligands are secreted from the CMC to promote the renewal of isl1^+ progenitors in a paracrine manner, the inventors developed an in vitro reconstitution of the mesenchymal niche.
# To further characterize the nature of the CMC-derived cues, the inventors tested the ability of Wnt3a to reproduce this effect.
# other protein kinases = conditions: Plotkin et al., 2003; cited from earlier work
# murine Wls/Evi = biological target: T1, murine Wls/Evi (Mus musculus, UniProt Q6DID7); assay: Wnt reporter (superTOPFLASH) coculture with siRNA-transfected Wnt3a-producing cells, luciferase; format: cell-based; conditions: coculture with transfected Wnt3a-secreting cells, versus control
# T1 construct: endogenous in cells; host or cells: Wnt3a-producing (Wnt3a-secreting) cell line (ATCC), cocultured with superTOPFLASH Wnt reporter cells
# T1 sequence (Q6DID7 1-541): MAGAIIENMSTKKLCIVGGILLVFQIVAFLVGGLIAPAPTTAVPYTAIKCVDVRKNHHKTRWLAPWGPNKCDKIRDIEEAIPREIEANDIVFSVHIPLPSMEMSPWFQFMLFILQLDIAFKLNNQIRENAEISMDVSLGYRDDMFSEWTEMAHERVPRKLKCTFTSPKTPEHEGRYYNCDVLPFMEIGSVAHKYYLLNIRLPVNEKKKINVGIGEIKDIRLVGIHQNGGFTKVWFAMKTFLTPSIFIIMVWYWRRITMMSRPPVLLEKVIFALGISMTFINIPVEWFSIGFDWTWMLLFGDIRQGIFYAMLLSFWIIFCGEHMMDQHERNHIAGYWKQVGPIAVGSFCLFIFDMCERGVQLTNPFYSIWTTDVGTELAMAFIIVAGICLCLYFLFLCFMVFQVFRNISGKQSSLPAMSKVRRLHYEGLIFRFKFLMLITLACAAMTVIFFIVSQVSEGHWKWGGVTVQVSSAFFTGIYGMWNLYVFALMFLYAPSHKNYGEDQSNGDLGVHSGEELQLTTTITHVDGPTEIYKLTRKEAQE
# Text: Production of Reagents for Wnt Pathway. Wnt3a or control-conditioned medium was produced as following. A Wnt3a-secreting cell line (ATCC) was allowed to grow to conflency and subcultured at 1:20 ratio prior to replenish with fresh medium. Three batches of conditioned medium were harvested every 48 hrs. Dkk1-conditioned medium was produced by transiently transfecting a Dkk1-expressing cDNA (generously provided by Dr. Randall T. Moon) into the HEK293T cell line with FuGENE 6 (Roche). The supernatant was harvested 72 hrs after transfection. A Wnt-reporter cell line, superTOPFLASH, was a generous gift from Dr. Randall T. Moon.
# Small hairpin RNAs (shRNAs) oligonucleotide sequences were designed based on the following target sequences: siWLS-A ([…]) (SEQ ID NO:1) and siWLS-B (GGGTTACCGTGATGATATG, (SEQ ID NO:2) and subcloned into the retro-viral vector, RNAi-Ready pSIREN-RetroQ-DsRed-Express (Clontech) according to vendor's instructions. Negative control shRNA annealed oligonucleotide was provided by the vendor and cloned to the same vector. Retro-viral siRNAi particles were produced by transiently transfect these vectors into the packaging cell line EcoPack 2-293 cells with GENE 6 (Roche). Viral supernatant was harvested 72 hrs after transfection.
# The inventors confirmed this effect by blocking the secretion of Wnt ligands from the CMC. […]
# [5] = system: isl1-nlacZ knockin ES cell-derived precursors; assay: Prespecification of mesodermal precursors toward MICPs on CMC feeder, single β-gal+ cells after 24 hr; format: cell-based, mouse; conditions: 24 hr on CMC feeder, versus control
# Description: Immunohistochemical Analyses and lacZ Staining. Cells in culture or paraffin embedded sections were fixed with 4% paraformaldehyde and subjected to immunostaining. For mouse embryo cryosections, they were saturated with 20% sucrose followed by section and 2% PFA fix for 10 min at room temperature. The following primary antibodies were used in this study: isl1 (mouse monoclonal antibody, clone 39.4D5, clone 2D6 (Developmental Studies Hybridoma Bank, 1:100), cardiac troponin T (mouse monoclonal antibody, NeoMarkers, 1:200), smooth muscle myosin heavy chain (rabbit polyclonal, Biomedical Technologies Inc., 1:100), smooth muscle actin (mouse monoclonal, clone 1A4, Dako, 1:100; rabbit polyclonal, Abcam), phosphohistone H3 (rabbit polyclonal, Upstate). Alexa Fluor 488- or Alexa Fluor 594-conjugated secondary antibodies specific to the appropriate species were used (Molecular Probes, 1:350). 3D reconstruction was done using Winsuf from Surfdriver Software. […]
# The wnt/β-Catenin Pathway Regulates the Prespecification, Expansion, and Differentiation of Isl1+ Cardiovascular Progenitors. […] To score the effect of the CMC feeder on the prespecification of mesodermal precursors toward MICPs, the inventors quantified the single b-gal^+ cells 24 hr after treatment with various reagents (FIG. 7A). […]
molecule,measurement,setting,value
O=C1Cc2c([nH]c3ccc(Br)cc23)-c2ncccc2N1 [1-Azakenpaullone],number of isl1+ progenitors,[1],substantially increased
"O=C1Nc2cc(Br)ccc2/C1=C1/Nc2ccccc2/C1=N\O [BIO, 6-bromoindirubin-3′-oxime]",number of human Isl1+ progenitors,[2],markedly increased
same,increase of number of isl1+ progenitors versus control,[1],7 fold
same,"cluster formation of isl1+ progenitors, increase versus control",[1]; BIO at 2.5 μM,11.6 fold
same,number of isl1+ progenitors,[1],substantially increase; also recorded: increased the number of isl1^+ progenitors in a dose-dependent manner
same,formation of isl1+ clusters,[1]; versus control treated samples,promoted isl1^+ progenitors to form large clusters
same,β-gal activity (luciferase activity),[3],significantly increase
same,"apoptosis, cleaved caspase-3 immunostaining",CMC,no appreciable apoptosis
same,expansion of GFP+/Isl1+ anterior heart field cells,[4],marked expansion; also recorded: greater expansion
CC(=O)O/N=C1/C(=C2/C(=O)Nc3cc(Br)ccc32)Nc2ccccc21 [acetoxime analog of BIO],number of isl1+ progenitors,[1],substantially increased
GSK-3 peptide inhibitor: cell-permeable and substrate-competitive GSK-3 peptide inhibitor (GKEAPPAPPQSP),number of isl1+ progenitors,[1],significantly expand
same,inhibitory effect on other protein kinases,other protein kinases,negligible inhibitory effect
"siWLS-A: siRNA/shRNA against murine Wls/Evi, target sequence CACAAATCCTTTCTACAGTAT (the letters are possibly those of the target site)",luciferase activity of Wnt reporter cells (Wnt3a secretion),murine Wls/Evi,significant reduction; also recorded: significantly decreased
same,formation of MICPs (single β-gal+ cells),[5],significantly increased
"siWLS-B: siRNA/shRNA against murine Wls/Evi, target sequence GGGTTACCGTGATGATATG (the letters are possibly those of the target site)",luciferase activity of Wnt reporter cells (Wnt3a secretion),murine Wls/Evi,significant reduction; also recorded: significantly decreased
